Measured values as given in publication PMC10949930 (ACS Chemical Biology, 2024).
Converted amounts (≈) assume the structure as drawn.

Columns and labels:
S. aureus = conditions: atropisomers compared; cited from earlier work
B. subtilis 168 cells = assay: Membrane dye FM 5–95 labeling after compound exposure; type: cell-based, Bacillus subtilis; conditions: B. subtilis 168, 1× MIC, 15 min; CCCP 100 μM
[1] = system: GFP-MinD in B. subtilis cells; assay: GFP-MinD localization; type: cell-based, Bacillus subtilis; conditions: 10 min, 1× MIC, CCCP 100 μM
B. subtilis 168 = assay: MIC, broth microdilution; type: cell-based; conditions: Bacillus subtilis, 168, 20 h, read-out: MIC B. subtilis 168
S. aureus NCTC8325 cells = assay: Protonophore assay, intracellular pH by BCECF AM; type: cell-based, Staphylococcus aureus; conditions: 1× MIC, 10 min; for intracellular pH after compound addition: dropped from pH 7.8
S. aureus NCTC8325 [2] = assay: MIC, broth microdilution; type: cell-based; conditions: Staphylococcus aureus, NCTC8325, 20 h, read-out: MIC S. aureus NCTC8325
S. aureus NCTC8325 [3] = assay: Pore-forming assay, SYTO9/propidium iodide costaining; type: cell-based, Staphylococcus aureus; conditions: 4× MIC; nisin 100 μg mL^–1; 35 min

Compound: O=C(c1ccccc1O)c1[nH]c(Cl)c(Cl)c1-n1c(C(=O)c2ccccc2O)cc(Cl)c1Cl (atropisomer, axis not shown; (M)) [(−)-(M)-MarA]
- potency against S. aureus (S. aureus): equal potency

Compound: N#CC(C#N)=NNc1cccc(Cl)c1 [CCCP, carbonyl cyanide m-chlorophenyl hydrazone]
- localization of membrane dye FM 5–95 after treatment (B. subtilis 168 cells): aggregated, inhomogeneous, “spotty” localization
- GFP-MinD localization after treatment [1]: diffuse and spotty

Compound: Oc1c(Br)cc(Br)cc1-c1[nH]c(Br)c(Br)c1Br [compound 2, pentabromopseudilin]
- MIC (B. subtilis 168): 16 ng/mL (≈ 0.0289 µM)
- drop of intracellular pH (Δ) (S. aureus NCTC8325 cells): 0.2 pH units
- intracellular pH after compound addition (S. aureus NCTC8325 cells): 7.6
- MIC (S. aureus NCTC8325 [2]): 16 ng/mL (≈ 0.0289 µM)

Compound: Oc1c(Cl)cc(Cl)cc1-c1[nH]c(Cl)c(Cl)c1Cl [compound 3, pentachloropseudilin]
- membrane integrity / pore formation (SYTO9/propidium iodide) (S. aureus NCTC8325 [3]): only green fluorescence
- MIC (B. subtilis 168): 4 ng/mL (≈ 0.0121 µM)
- drop of intracellular pH (Δ) (S. aureus NCTC8325 cells): 0.2 pH units
- intracellular pH after compound addition (S. aureus NCTC8325 cells): 7.6
- MIC (S. aureus NCTC8325 [2]): 4 ng/mL (≈ 0.0121 µM)

Compound: nisin [reference compound]
- membrane integrity / pore formation (SYTO9/propidium iodide) (S. aureus NCTC8325 [3]): clear red fluorescence indicative of pore formation
